Source: patent US20210254272A1, “TEXTILES HAVING ANTIMICROBIAL PROPERTIES” (Livinguard AG, priority 2015, published 2021)

System: E. coli (ATCC 25922)
Assay: AATCC Test Method 100-2012 antibacterial activity of the treated textile, after 25 washes and 12 abrasion cycles, contact time 60 minutes
Type: cell-based
Conditions: for Log reduction of antimicrobial performance: 1% o.w.f; for Log reduction of antimicrobial performance in 100 GSM Polyester fabric / Log reduction of antimicrobial performance in 100 GSM cotton fabric / Log reduction of antimicrobial performance in 300 GSM Polyester fabric / Log reduction of antimicrobial performance in 300 GSM cotton fabric / Performance Test-Log reduction of antimicrobial performance: 2 min; for Performance Test-Log reduction of antimicrobial performance: pad process, single agent 5 gm/lit
Method: The antibacterial activity of the textile was tested in accordance with AATCC Test Method 100-2012. Prior to the test, the fabric was cut into coupons of 2×4 inches and washed separately 25 times, and exposed to 12 abrasion cycles, as per US EPA protocol 90072PA4 (described further below). The tests were made against E. coli (ATCC 25922). Contact time was 60 minutes, after inoculating with 10^8 CFU per coupon.

[1] = exhaust 80° C., 60 min, curing 180° C., dosage 0.1% o.w.f
[2] = exhaust 80° C., 60 min, curing 180° C., dosage 0.2% o.w.f
[3] = exhaust 80° C., 60 min, curing 180° C., dosage 0.5% o.w.f
[4] = exhaust 80° C., 60 min, curing 180° C., dosage 0.8% o.w.f
[5] = exhaust 80° C., 60 min, curing 180° C., dosage 1.0% o.w.f

CCCC1COC(Cn2cncn2)(c2ccc(Cl)cc2Cl)O1 (stereo not drawn) [Propiconazole, propiconazole]
Log reduction of antimicrobial performance of each active ingredient (exhaust 60° C., solution dosage 1% o.w.f, process time 60 min): 1.7 Log
Log reduction of antimicrobial performance of each active ingredient (exhaust 60° C., solution dosage 1% o.w.f, process time 90 min): 1.8 Log
Log reduction of antimicrobial performance of each active ingredient (exhaust 60° C., solution dosage 1% o.w.f, process time 120 min): 2.2 Log
Log reduction of antimicrobial performance of each active ingredient (exhaust 60° C., solution dosage 1% o.w.f, process time 180 min): 2.3 Log
Log reduction of antimicrobial performance of each active ingredient (exhaust 60° C., solution dosage 1% o.w.f, process time 240 min): 2.11 Log
Log reduction of antimicrobial performance (exhaust 80° C., 60 min, curing 170° C., curing dwell time 0.5 min): 0.3 Log
Log reduction of antimicrobial performance (exhaust 80° C., 60 min, curing 170° C., curing dwell time 1.0 min): 0.6 Log
Log reduction of antimicrobial performance (exhaust 80° C., 60 min, curing 170° C., curing dwell time 1.5 min): 0.8 Log
Log reduction of antimicrobial performance (exhaust 80° C., 60 min, curing 170° C., curing dwell time 2.0 min): 1.3 Log
Log reduction of antimicrobial performance (exhaust 80° C., 60 min, curing 170° C., curing dwell time 2.5 min): 1.1 Log
Log reduction of antimicrobial performance (exhaust 80° C., 60 min, curing 170° C., curing dwell time 3.0 min): 0.67 Log
Log reduction of antimicrobial performance (exhaust 80° C., 60 min, curing 180° C., curing dwell time 0.5 min): 1.7 Log
Log reduction of antimicrobial performance (exhaust 80° C., 60 min, curing 180° C., curing dwell time 1.0 min): 1.8 Log
Log reduction of antimicrobial performance (exhaust 80° C., 60 min, curing 180° C., curing dwell time 1.5 min): 2.2 Log
Log reduction of antimicrobial performance (exhaust 80° C., 60 min, curing 180° C., curing dwell time 2.0 min): 3.8 Log
Log reduction of antimicrobial performance (exhaust 80° C., 60 min, curing 180° C., curing dwell time 2.5 min): 3.5 Log
Log reduction of antimicrobial performance (exhaust 80° C., 60 min, curing 180° C., curing dwell time 3.0 min): 3.4 Log
Log reduction of antimicrobial performance (exhaust 80° C., 60 min, curing 190° C., curing dwell time 0.5 min): 0.3 Log
Log reduction of antimicrobial performance (exhaust 80° C., 60 min, curing 190° C., curing dwell time 1.0 min): 0.8 Log
Log reduction of antimicrobial performance (exhaust 80° C., 60 min, curing 190° C., curing dwell time 1.5 min): 2.2 Log
Log reduction of antimicrobial performance (exhaust 80° C., 60 min, curing 190° C., curing dwell time 2.0 min): 2.88 Log
Log reduction of antimicrobial performance (exhaust 80° C., 60 min, curing 190° C., curing dwell time 2.5 min): 2.34 Log
Log reduction of antimicrobial performance (exhaust 80° C., 60 min, curing 190° C., curing dwell time 3.0 min): 1.1 Log
Log reduction of antimicrobial performance (exhaust 80° C., 60 min, curing temperature 100 ° C.): 0.21 Log
Log reduction of antimicrobial performance (exhaust 80° C., 60 min, curing temperature 120 ° C.): 0.45 Log
Log reduction of antimicrobial performance (exhaust 80° C., 60 min, curing temperature 140 ° C.): 0.98 Log
Log reduction of antimicrobial performance (exhaust 80° C., 60 min, curing temperature 160 ° C.): 1.23 Log
Log reduction of antimicrobial performance (exhaust 80° C., 60 min, curing temperature 165 ° C.): 1.28 Log
Log reduction of antimicrobial performance (exhaust 80° C., 60 min, curing temperature 170 ° C.): 1.45 Log
Log reduction of antimicrobial performance (exhaust 80° C., 60 min, curing temperature 175 ° C.): 2.32 Log
Log reduction of antimicrobial performance (exhaust 80° C., 60 min, curing temperature 180 ° C.): 2.87 Log
Log reduction of antimicrobial performance (exhaust 80° C., 60 min, curing temperature 185 ° C.): 2.88 Log
Log reduction of antimicrobial performance (exhaust 80° C., 60 min, curing temperature 190 ° C.): 2.91 Log
Log reduction of antimicrobial performance (exhaust 80° C., 60 min, curing temperature 195 ° C.): 2.93 Log
Log reduction of antimicrobial performance in 100 GSM Polyester fabric [1]: 0.59 Log
Log reduction of antimicrobial performance in 100 GSM cotton fabric [1]: 0.63 Log
Log reduction of antimicrobial performance in 300 GSM Polyester fabric [1]: 0.58 Log
Log reduction of antimicrobial performance in 300 GSM cotton fabric [1]: 0.64 Log
Log reduction of antimicrobial performance in 100 GSM Polyester fabric [2]: 1.35 Log
Log reduction of antimicrobial performance in 100 GSM cotton fabric [2]: 1.45 Log
Log reduction of antimicrobial performance in 300 GSM Polyester fabric [2]: 1.37 Log
Log reduction of antimicrobial performance in 300 GSM cotton fabric [2]: 1.45 Log
Log reduction of antimicrobial performance in 100 GSM Polyester fabric [3]: 1.71 Log
Log reduction of antimicrobial performance in 100 GSM cotton fabric [3]: 1.95 Log
Log reduction of antimicrobial performance in 300 GSM Polyester fabric [3]: 1.73 Log
Log reduction of antimicrobial performance in 300 GSM cotton fabric [3]: 1.95 Log
Log reduction of antimicrobial performance in 100 GSM Polyester fabric [4]: 2.14 Log
Log reduction of antimicrobial performance in 100 GSM cotton fabric [4]: 2.34 Log
Log reduction of antimicrobial performance in 300 GSM Polyester fabric [4]: 2.50 Log
Log reduction of antimicrobial performance in 300 GSM cotton fabric [4]: 2.34 Log
Log reduction of antimicrobial performance in 100 GSM Polyester fabric [5]: 2.75 Log
Log reduction of antimicrobial performance in 100 GSM cotton fabric [5]: 2.85 Log
Log reduction of antimicrobial performance in 300 GSM Polyester fabric [5]: 2.74 Log
Log reduction of antimicrobial performance in 300 GSM cotton fabric [5]: 2.88 Log
Log reduction of antimicrobial performance of each active ingredient (exhaust 80° C., 60 min, dosage 1% o.w.f (test up to 5% o.w.f)): 2.56 Log
Log reduction of antimicrobial performance of each active ingredient (exhaust 80° C., 60 min, dosage 2% o.w.f): 2.57 Log
Log reduction of antimicrobial performance of each active ingredient (exhaust 80° C., 60 min, dosage 3% o.w.f): 2.58 Log
Log reduction of antimicrobial performance of each active ingredient (exhaust 80° C., 60 min, dosage 4% o.w.f): 2.61 Log
Log reduction of antimicrobial performance of each active ingredient (exhaust 80° C., 60 min, dosage 5% o.w.f): 2.63 Log
Log reduction of antimicrobial performance of each active ingredient (exhaust 80 ° C., solution dosage 1% o.w.f, process time 10 min): 0.83 Log
Log reduction of antimicrobial performance of each active ingredient (exhaust 80 ° C., solution dosage 1% o.w.f, process time 20 min): 0.99 Log
Log reduction of antimicrobial performance of each active ingredient (exhaust 80 ° C., solution dosage 1% o.w.f, process time 30 min): 1.23 Log
Log reduction of antimicrobial performance of each active ingredient (exhaust 80 ° C., solution dosage 1% o.w.f, process time 40 min): 1.67 Log
Log reduction of antimicrobial performance of each active ingredient (exhaust 80 ° C., solution dosage 1% o.w.f, process time 50 min): 2.56 Log
Log reduction of antimicrobial performance of each active ingredient (exhaust 80 ° C., solution dosage 1% o.w.f, process time 60 min): 2.87 Log
Log reduction of antimicrobial performance of each active ingredient (exhaust 80 ° C., solution dosage 1% o.w.f, process time 70 min): 2.89 Log
Log reduction of antimicrobial performance of each active ingredient (exhaust 80 ° C., solution dosage 1% o.w.f, process time 80 min): 2.93 Log
Log reduction of antimicrobial performance of each active ingredient (exhaust 80 ° C., solution dosage 1% o.w.f, process time 90 min): 2.94 Log
Performance Test-Log reduction of antimicrobial performance (curing 120° C.): 0.04 Log
Performance Test-Log reduction of antimicrobial performance (curing 140° C.): 0.14 Log
Performance Test-Log reduction of antimicrobial performance (curing 150° C.): 0.22 Log
Performance Test-Log reduction of antimicrobial performance (curing 160° C.): 0.49 Log
